Consider two molecules from PMC9943626, “CS27109, A Selective Thyroid Hormone Receptor-β Agonist Alleviates Metabolic-Associated Fatty Liver Disease in Murine Models” (International Journal of Endocrinology, 2023).

The nature of series [1]: PK in the mouse. Type of series: in vivo, C57/B6 mouse. How it is done: Blood was collected for each mouse 0.5, 1, 2, 3, 4, 6, 8, 24, and 30 hours (H) after compound administration. Then, the serum was isolated and an extractant (containing 200 ng/ml methanol) was added to the serum. Samples were assessed by liquid chromatography-tandem mass spectrometry (LC-MS/MS) according to the standard procedure.

For series [2], the target named is T1, THR-β (Homo sapiens, UniProt P10828).
T1 construct: expressed in transfected cells; host or cells: CV-1 cells
T1 sequence (P10828 1-461): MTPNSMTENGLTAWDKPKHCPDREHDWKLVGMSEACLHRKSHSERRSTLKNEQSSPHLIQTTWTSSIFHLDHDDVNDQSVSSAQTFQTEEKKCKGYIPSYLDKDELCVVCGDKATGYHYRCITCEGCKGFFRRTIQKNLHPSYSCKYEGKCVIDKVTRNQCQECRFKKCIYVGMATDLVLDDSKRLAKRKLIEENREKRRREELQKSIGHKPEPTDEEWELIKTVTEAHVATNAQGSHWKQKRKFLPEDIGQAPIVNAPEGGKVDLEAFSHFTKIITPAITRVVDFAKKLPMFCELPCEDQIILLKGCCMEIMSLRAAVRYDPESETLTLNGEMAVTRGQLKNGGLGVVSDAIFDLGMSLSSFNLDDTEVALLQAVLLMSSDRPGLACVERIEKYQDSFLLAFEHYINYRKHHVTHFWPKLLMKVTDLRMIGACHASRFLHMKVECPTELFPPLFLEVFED
Kind of series: Luciferase reporter gene assay, THR-β. Type of series: cell-based. Here is the method:
(§1) We applied a luciferase reporter gene assay to assess the capacity of drugs to bind and activate THRα or THRβ. First, we seeded 5 × 10^3 CV-1 cells for each well into 96-well plates and incubated for 24 hours at 37°C and 5% CO2. We then transiently transfected mixed THR-α or THR-β expression plasmids (with DR4) into liposomes with a firefly luciferase reporter (2 : 2 : 1, THRα : DR4 : GFP or 3 : 3 : 1, THRβ : DR4 : GFP) and then mixed with the X-tremeGENE HP DNA Transfection Reagent (Roche, Basel, BS, Switzerland). […] We then removed the medium and added 60 μl of 1x Cell Culture Lysis and 5x reagent (Promega, E153A) to each well. […] Finally, we added 30 μl of Luciferase Assay Buffer (Promega, E151A) to each well to detect Luci values. 50% activation (AC50) for each compound was calculated based on these values.
Background: Reporter assays use an easily measured gene product as a stand-in for the process of interest.

The target in series [3] is T2, hERG (Homo sapiens, UniProt Q12809).
T2 construct: Ice Bioscience Co., Ltd. (Beijing, China)
T2 sequence (Q12809 whole entry): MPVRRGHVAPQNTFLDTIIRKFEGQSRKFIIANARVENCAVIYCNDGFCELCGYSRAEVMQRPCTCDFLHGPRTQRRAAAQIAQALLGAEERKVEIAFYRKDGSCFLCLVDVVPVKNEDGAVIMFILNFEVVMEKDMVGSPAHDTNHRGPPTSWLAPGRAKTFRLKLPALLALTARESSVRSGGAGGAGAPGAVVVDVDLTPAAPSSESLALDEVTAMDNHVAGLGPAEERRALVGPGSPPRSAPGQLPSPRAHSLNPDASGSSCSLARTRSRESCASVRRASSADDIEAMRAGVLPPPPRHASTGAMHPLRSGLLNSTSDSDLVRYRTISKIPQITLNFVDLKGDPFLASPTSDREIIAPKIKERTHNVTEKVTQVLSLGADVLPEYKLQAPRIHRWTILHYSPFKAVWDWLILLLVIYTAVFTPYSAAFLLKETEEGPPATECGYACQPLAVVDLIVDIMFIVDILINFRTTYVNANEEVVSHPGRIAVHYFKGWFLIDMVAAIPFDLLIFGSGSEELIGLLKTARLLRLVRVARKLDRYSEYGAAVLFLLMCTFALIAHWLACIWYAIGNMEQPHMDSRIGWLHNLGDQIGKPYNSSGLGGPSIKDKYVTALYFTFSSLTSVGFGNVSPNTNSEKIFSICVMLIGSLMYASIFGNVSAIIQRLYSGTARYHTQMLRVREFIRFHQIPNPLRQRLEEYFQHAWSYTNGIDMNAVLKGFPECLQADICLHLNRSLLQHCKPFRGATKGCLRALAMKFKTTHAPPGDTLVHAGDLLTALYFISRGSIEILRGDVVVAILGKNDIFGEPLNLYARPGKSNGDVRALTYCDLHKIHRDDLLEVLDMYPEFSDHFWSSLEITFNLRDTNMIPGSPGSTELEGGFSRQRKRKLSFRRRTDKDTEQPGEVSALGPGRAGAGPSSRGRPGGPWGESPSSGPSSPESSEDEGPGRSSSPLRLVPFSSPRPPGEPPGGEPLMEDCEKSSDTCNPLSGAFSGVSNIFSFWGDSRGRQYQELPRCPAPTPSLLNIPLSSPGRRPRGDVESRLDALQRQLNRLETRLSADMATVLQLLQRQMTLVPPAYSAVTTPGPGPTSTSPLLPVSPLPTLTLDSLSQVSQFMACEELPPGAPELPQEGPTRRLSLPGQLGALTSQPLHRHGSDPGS
The series is described as follows: hERG test (QPatch HTX). Type of series: cell-based. Here is the method:
hERG test was performed by Ice Bioscience Co., Ltd. (Beijing, China) using the QPatch HTX method according to the manufacturer's instruction. 5 doses of CS27109 were tested, including […], each one with a duplicate. The tested values (current) were normalized to the negative control (0.1% DMSO), and IC50 was calculated based on the normalized data.
(Block of hERG is tested as a sign of cardiac risk.)

The target of series [4] is T3, THR-α (Homo sapiens, UniProt P10827).
T3 construct: expressed in transfected cells; host or cells: CV-1 cells
T3 sequence (P10827 1-410 isoform P10827-2): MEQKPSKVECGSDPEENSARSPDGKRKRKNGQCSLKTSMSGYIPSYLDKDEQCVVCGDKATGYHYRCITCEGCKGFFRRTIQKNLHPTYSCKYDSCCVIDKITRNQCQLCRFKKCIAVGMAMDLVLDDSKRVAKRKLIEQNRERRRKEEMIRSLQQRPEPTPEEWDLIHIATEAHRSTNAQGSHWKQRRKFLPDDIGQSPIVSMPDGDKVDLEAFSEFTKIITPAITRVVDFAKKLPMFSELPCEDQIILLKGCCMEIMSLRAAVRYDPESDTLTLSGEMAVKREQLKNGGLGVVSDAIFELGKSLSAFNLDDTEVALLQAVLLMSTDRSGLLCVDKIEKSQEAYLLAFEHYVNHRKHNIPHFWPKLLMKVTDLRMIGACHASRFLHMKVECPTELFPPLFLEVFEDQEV
Kind of series: Luciferase reporter gene assay, THR-α. It counts as cell-based. The conditions noted are these: CV-1 cells transfected with THR-α, DR4 luciferase reporter, 22 hours. How it is done:
as §1

The test system of series [5] is WD + CCL4 model. Also on record: method as in earlier work. The conditions noted are these: CCL4 induction started at week 8 (8 weeks in total), drug began 4-week after CCL4 induction; CS27109 alone; ref our another study (manuscript is submitting to another journal); cited from earlier work.
A short description of series [6]: PK in the rat. It counts as in vivo, SD rat. As to conditions: 10 mg/kg oral gavage once.

A word on the AC50: it is the concentration at which the activity in the assay is half-maximal. Low readings indicate greater potency, high ones weaker potency. What is called IC50 is the concentration that inhibits the measured activity by half. Higher therefore signals lower potency. In the case of `N#Cc1nn(-c2cc(Br)c(Oc3n[nH]c(=O)c4ccccc34)c(Br)c2)c(=O)[nH]c1=O` [CS27109], in series [1] (10 mg/kg oral gavage once), the “PK properties in mouse (comparison of CS27109 and MGL3196)” value is “comparative PK properties”. For the same molecule, the “AUC in mouse relative to AUC in rat” value in series [1] (10 mg/kg oral, mouse higher than rat) worked out at 1.5 fold. The same molecule returned an AC50 in series [2] (CV-1 cells transfected with THR-β, DR4 luciferase reporter, 22 hours) of 1.98 µM. Further, the “Selectivity (α/β)” value in series [2] (THR-α/THR-β AC50 ratio) is listed as 12.67. Moreover, in series [3], the IC50 was greater than 30 µM and the hERG test result is “cardiac tolerable”. Also, the AC50 in series [4] is 25.1 µM. Besides, the liver fibrosis result in series [5] was “sufficient to reverse liver fibrosis”.

For `CC(C)c1cc(Oc2c(Cl)cc(-n3nc(C#N)c(=O)[nH]c3=O)cc2Cl)n[nH]c1=O` [MGL3196, 2-[3,5-dichloro-4-(5-isopropyl-6-oxo-1,6-dihydropyridazin-3-yloxy)phenyl]-3,5-dio xo-2,3,4,5-tetrahydro[1,2,4]triazine-6-carbonitrile, reference compound], the “PK properties in rat (compared with CS27109)” value in series [6] is “slightly higher PK properties”.
